Assay [1] has as its system Spodoptera littoralis. The assay can be described thus: Antifeedant activity against Spodoptera littoralis fed on compound treated artificial diet assessed as food ingested by choice feeding assay relative to control. In kind it is functional.
Assay [2] relates to Spodoptera littoralis. As to the kind of experiment: Antifeedant activity against Spodoptera littoralis fed on compound treated artificial diet assessed as larval weight gain by choice feeding assay relative to control. In kind it is functional.
Assay [3] relates to Spodoptera littoralis. The assay can be described thus: Antifeedant activity against […] Spodoptera littoralis fed on compound treated artificial diet by choice feeding assay. In kind it is functional, organism-based.
The test system of a further assay is Myzus persicae. As to the kind of experiment: Antifeedant activity against apterous adult Myzus persicae (green peach aphid) fed on compound treated bell pepper assessed as settling on leaf by choice feeding assay (reference value: 52 to 70%). In kind it is functional.
The test system of assay [4] is Leptinotarsa decemlineata. The assay can be described thus: Antifeedant activity against adult Leptinotarsa decemlineata fed on compound treated potato foliage by choice feeding assay. In kind it is functional, organism-based.

With `C=C1C(=O)C(C)=C(C)C1(C)C`, the Activity in the assay with Spodoptera littoralis [1] is 88%; in the assay with Spodoptera littoralis [2], 87%; in the assay with Myzus persicae, 48%. For the same compound, the EC50 (with Spodoptera littoralis [3]; in assay [4]) was more than 50 microg/cm2 each time.
As for `CC12CCC(CC1=O)C2(C)C` (stereo not given) [CAMPHOR], the Activity in the assay on Spodoptera littoralis [1] came to 83%; in the assay with Spodoptera littoralis [2], 97%; with Myzus persicae, 40%. The EC50 (with Spodoptera littoralis [3]; in assay [4]) was more than 50 microg/cm2 throughout.
For the compound `CC12CCC(CC1)C(C)(C)O2` [EUCALYPTOL], the Activity in the assay with Spodoptera littoralis [1] was 95%; in the assay on Spodoptera littoralis [2], 96%; in the assay with Myzus persicae, 37%. In addition, the EC50 (in the assay with Spodoptera littoralis [3]; in assay [4]) was more than 50 microg/cm2 in each case.
For the compound `CC12CCC(C1)C(C)(C)C2=O` (stereo not given) [FENCHONE], the Activity in the assay on Spodoptera littoralis [1] came out at 91%; in the assay with Spodoptera littoralis [2], 100%; with Myzus persicae it was 30%. Besides, the EC50 (in the assay on Spodoptera littoralis [3]; in assay [4]) was more than 50 microg/cm2 each time.

Source of the values: ChEMBL document CHEMBL3046038, “Antifeedant effects and chemical composition of essential oils from different populations of Lavandula luisieri L” (Biochem Syst Ecol, 2006).
